Measurements: PubChem BioAssay (NCI)
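The compound was tested at five concentrations on cells cultured in 96-well plates, with a 48-hour exposure period. Definition used: TGI = concentration required for complete inhibition of growth.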

What was measured:
Test in all cases: growth of human tumour cells (NCI), 48 h
[1] = system: SK-MEL-2 melanoma
[2] = system: SNB-19 CNS
[3] = system: XF 498 CNS
[4] = system: KM12 colon
[5] = system: IGROV1 ovarian
[6] = system: A549 NSCLC
[7] = system: UO-31 renal
[8] = system: SK-MEL-5 melanoma
[9] = system: DMS 273 small cell lung
[10] = system: NCI-H522 lung
[11] = system: HOP-92 NSCLC
[12] = system: HCC-2998 colon
[13] = system: U251 CNS
[14] = system: M14 melanoma
[15] = system: NCI-H226 lung
[16] = system: HL-60(TB) leukemia
[17] = system: SNB-78 CNS
[18] = system: NCI-H23 lung
[19] = system: M19-MEL melanoma
[20] = system: SW-620 colon
[21] = system: 786-0 renal
[22] = system: HCT-15 colon
[23] = system: KM20L2 colon
[24] = system: NCI-H460 lung
[25] = system: HT29 colon
[26] = system: SN12C renal
[27] = system: RXF-631 renal
[28] = system: EKVX NSCLC
[29] = system: DLD-1 colon
[30] = system: CCRF-CEM leukemia
[31] = system: TK-10 renal
[32] = system: HCT-116 colon
[33] = system: MALME-3M melanoma
[34] = system: OVCAR-5 ovarian
[35] = system: ACHN renal
[36] = system: CAKI-1 renal
[37] = system: LXFL 529 NSCLC
[38] = system: RPMI-8226 leukemia
[39] = system: HOP-62 NSCLC
[40] = system: LOX IMVI melanoma
[41] = system: SF-295 CNS
[42] = system: A498 renal
[43] = system: SF-539 CNS
[44] = system: UACC-62 melanoma
[45] = system: SNB-75 CNS
[46] = system: SF-268 CNS
[47] = system: COLO 205 colon
[48] = system: K-562 leukemia
[49] = system: OVCAR-4 ovarian
[50] = system: UACC-257 melanoma
[51] = system: SK-OV-3 ovarian
[52] = system: DMS 114 small cell lung
[53] = system: OVCAR-8 ovarian
[54] = system: RXF 393 renal
[55] = system: OVCAR-3 ovarian
[56] = system: SR leukemia
[57] = system: SK-MEL-28 melanoma
[58] = system: MOLT-4 leukemia

## O=C(Cc1nc2ccccc2o1)C(=O)Nc1ccccc1C(F)(F)F
[1]
  TGI: > 100 µM
[2]
  TGI: > 100 µM
[3]
  TGI: > 100 µM
[4]
  TGI: > 100 µM
[5]
  TGI: > 100 µM
[6]
  TGI: > 100 µM
[7]
  TGI: > 100 µM
[8]
  TGI: > 100 µM
[9]
  TGI: > 100 µM
[10]
  TGI: > 100 µM
[11]
  TGI: > 100 µM
[12]
  TGI: > 100 µM
[13]
  TGI: > 100 µM
[14]
  TGI: > 100 µM
[15]
  TGI: > 100 µM
[16]
  TGI: > 100 µM
[17]
  TGI: > 100 µM
[18]
  TGI: > 100 µM
[19]
  TGI: > 100 µM
[20]
  TGI: > 100 µM
[21]
  TGI: > 100 µM
[22]
  TGI: > 100 µM
[23]
  TGI: > 100 µM
[24]
  TGI: > 100 µM
[25]
  TGI: > 100 µM
[26]
  TGI: > 100 µM
[27]
  TGI: > 100 µM
[28]
  TGI: > 100 µM
[29]
  TGI: > 100 µM
[30]
  TGI: > 100 µM
[31]
  TGI: > 100 µM
[32]
  TGI: > 100 µM
[33]
  TGI: > 100 µM
[34]
  TGI: > 100 µM
[35]
  TGI: > 100 µM
[36]
  TGI: > 100 µM
[37]
  TGI: > 100 µM
[38]
  TGI: > 100 µM
[39]
  TGI: > 100 µM
[40]
  TGI: > 100 µM
[41]
  TGI: > 100 µM
[42]
  TGI: > 100 µM
[43]
  TGI: > 100 µM
[44]
  TGI: > 100 µM
[45]
  TGI: > 100 µM
[46]
  TGI: > 100 µM
[47]
  TGI: > 100 µM
[48]
  TGI: > 100 µM
[49]
  TGI: > 100 µM
[50]
  TGI: > 100 µM
[51]
  TGI: > 100 µM
[52]
  TGI: > 100 µM
[53]
  TGI: > 100 µM
[54]
  TGI: > 100 µM
[55]
  TGI: > 100 µM

## COC1=CC(=Nc2c(Cl)cc(Cl)cc2OC(=O)c2ccc([N+](=O)[O-])cc2)C=C(OC)C1=O
[1]
  TGI: 29.9 µM
[2]
  TGI: 30 µM
[3]
  TGI: 21.5 µM
[4]
  TGI: 29.4 µM
[5]
  TGI: 31.2 µM
[6]
  TGI: 23.4 µM
[7]
  TGI: 24.3 µM
[8]
  TGI: 20.4 µM
[9]
  TGI: 30.5 µM
[10]
  TGI: 23.6 µM
[11]
  TGI: 14.8 µM
[12]
  TGI: 32.4 µM
[13]
  TGI: 27.1 µM
[14]
  TGI: 25.8 µM
[15]
  TGI: 28.7 µM
[16]
  TGI: 12.1 µM
[17]
  TGI: 56.9 µM
[18]
  TGI: 22.9 µM
[56]
  TGI: 15.3 µM
[19]
  TGI: 10.8 µM
[20]
  TGI: 26.8 µM
[21]
  TGI: 28 µM
[22]
  TGI: 20.8 µM
[23]
  TGI: 32.8 µM
[24]
  TGI: 31.3 µM
[57]
  TGI: 30.5 µM
[25]
  TGI: 33.5 µM
[26]
  TGI: 24.3 µM
[27]
  TGI: 11.1 µM
[28]
  TGI: 29.5 µM
[29]
  TGI: 30 µM
[58]
  TGI: 26.7 µM
[30]
  TGI: > 25.9 µM
[31]
  TGI: 37.4 µM
[32]
  TGI: 18.9 µM
[33]
  TGI: 28.9 µM
[34]
  TGI: 33.7 µM
[35]
  TGI: 22.6 µM
[36]
  TGI: 31.7 µM
[37]
  TGI: 18.5 µM
[38]
  TGI: > 39.1 µM
[39]
  TGI: 36.2 µM
[40]
  TGI: 5.67 µM
[41]
  TGI: 23.7 µM
[43]
  TGI: 23.4 µM
[44]
  TGI: 15.6 µM
[45]
  TGI: 27.8 µM
[46]
  TGI: 23.2 µM
[47]
  TGI: 33.6 µM
[48]
  TGI: 27 µM
[49]
  TGI: 21.9 µM
[50]
  TGI: 24.2 µM
[51]
  TGI: 30.8 µM
[52]
  TGI: 8.52 µM
[53]
  TGI: 20.2 µM
[54]
  TGI: 24.6 µM
[55]
  TGI: 20.9 µM
